Reference: PMC7354613 (Viruses, 2020)
Like-named read-outs stand apart in the source and are kept apart here.

Experiments:
[1] = Cytotoxicity, CellTiter-Blue, J-Lat 10.6 cells; assay type: cell-based; details: human, 48 h treatment, mean ± SD, n = 3
[2] = Cytotoxicity, CellTiter-Blue, J-Lat A2 cells; assay type: cell-based; details: human, 48 h treatment, mean ± SD, n = 3
[3] = tested on: U1 cells latently infected with HIV-1; assay: HIV reactivation, Gag p24 ELISA of supernatant, U1 cells; assay type: cell-based; details: Human immunodeficiency virus 1, 48 h, read-out: EC50 HIV activation U1
[4] = Cytotoxicity, CellTiter-Blue, U1 cells; assay type: cell-based; details: human, 48 h treatment, mean ± SD, n = 3
[5] = Cytotoxicity, CellTiter-Blue, OM-10.1 cells; assay type: cell-based; details: human, 48 h treatment, mean ± SD, n = 3
[6] = tested on: OM-10.1 cells latently infected with HIV-1; assay: HIV activation dose response, Gag p24 ELISA of supernatant, OM-10.1 cells; assay type: cell-based; details: Human immunodeficiency virus 1, 48 h, read-out: EC50 HIV activation OM-10.1
J-Lat A2 cells = assay: HIV reactivation, GFP expression by flow cytometry, J-Lat A2 cells; assay type: cell-based, HIV-1; details: Human immunodeficiency virus 1, J-Lat A2, 48 h, read-out: EC50 HIV activation J-Lat A2
[7] = tested on: ACH-2 cells latently infected with HIV-1; assay: HIV reactivation, Gag p24 ELISA of supernatant, ACH-2 cells; assay type: cell-based; details: Human immunodeficiency virus 1, ACH-2, 48 h, read-out: EC50 HIV activation ACH-2
[8] = Cytotoxicity, CellTiter-Blue, ACH-2 cells; assay type: cell-based; details: human; 48 h treatment; mean ± SD, n = 3
J-Lat 10.6 cells = assay: HIV reactivation, GFP expression by flow cytometry, J-Lat 10.6 cells; assay type: cell-based, HIV-1; details: for EC50: Human immunodeficiency virus 1, J-Lat 10.6, 48 h, read-out: EC50 HIV activation J-Lat 10.6; for GFP expression with respect to the PMA control set to 100: J-Lat 10.6, 48 h, 0.5 µM PKCa, 0.3 µM HDACi
[9] = tested on: OM-10.1 cells latently infected with HIV-1; assay: HIV RNA by real-time qRT-PCR, OM-10.1 cells; assay type: cell-based; details: 48 h
[10] = tested on: OM-10.1 cells latently infected with HIV-1; assay: Envelope gp120 expression by flow cytometry, OM-10.1 cells; assay type: cell-based; details: live cells
[11] = tested on: OM-10.1 cells latently infected with HIV-1; assay: Gag p24 immunoblot with densitometry, OM-10.1 cells; assay type: cell-based; details: 48 h
total CD4+ T-cells = assay: CD4 and CD3 surface expression by flow cytometry; assay type: cell-based, human; details: 24 h, 0.5 µM PKCa, 0.3 µM HDACi, untreated about 97%
[12] = tested on: OM-10.1, U1, ACH-2, J-Lat 10.6 and J-Lat A2 cells; assay type: cell-based, HIV-1; details: read-out: EC50 HIV activation
[13] = tested on: ACH-2 cells latently infected with HIV-1; assay: Envelope gp120 expression by flow cytometry, ACH-2 cells; assay type: cell-based; details: live cells
[14] = Human immunodeficiency virus 1, range over all the cell lines tested, 48 h

| Compound | CC50 at 48 h [1] | CC50 at 48 h [2] | EC50 [3] | CC50 at 48 h [4] | CC50 [5] | EC50 [6] | EC50 (J-Lat A2 cells) | EC50 [7] | CC50 [8] | EC50 (J-Lat 10.6 cells) | GFP expression with respect to the PMA control set to 100 (J-Lat 10.6 cells) | cells expressing CD4 (CD4 expression, R1) (total CD4+ T-cells) | EC50 [12, 14] | other results |
| --- | --- | --- | --- | --- | --- | --- | --- | --- | --- | --- | --- | --- | --- | --- |
| CCN(CC)Cc1ccc2cc(COC(=O)Nc3ccc(C(=O)NO)cc3)ccc2c1 [Givinostat] | 930 ± 40 nM | 1200 ± 20 nM | 630 ± 20 nM | ~4000 nM | 420 ± 10 nM | 450 ± 130 nM | 700 ± 50 nM | 320 ± 40 nM | 630 ± 30 nM | 880 ± 40 nM | 2.9% | – | – | – |
| TNFα | – | – | – | – | – | – | – | – | – | – | – | – | – | HIV-1 RNA expression, fold with respect to the untreated control ([9]; cell-associated RNA): 300 fold; HIV-1 RNA expression, fold with respect to the PMA-treated control ([9]; cell-associated RNA, 0.5 µM PKCa, 0.3 µM HDACi): about 30 fold; extracellular viral RNA, fold with respect to PMA-treated control ([9]; culture supernatant): 1.5 fold; cells expressing gp120 ([10]; 24 h): 70%; cells expressing gp120 ([10]; 48 h): 42%; cell-associated Gag p24, fold compared to treatment with PMA ([11]; immunoblot densitometry): 12–30 fold; extracellular p24, fold with respect to PMA-treated control ([11]; viral lysate immunoblot): 1.5 fold |
| CC(C)C1C(=O)NC(CO)Cc2c[nH]c3cccc(c23)N1C (single isomer, unassigned; (-)) [(-)-Indolactam V] | > 8000 nM | > 8000 nM | 120 ± 20 nM | > 8000 nM | – | 90 ± 20 nM | 320 ± 50 nM | 180 ± 30 nM | – | 200 ± 40 nM | – | 5.5% | – | CC50 at 48 h [5]: > 8000 nM; CC50 at 48 h [8]: > 8000 nM; EC50 ([12]; Human immunodeficiency virus 1, 48 h): 90 to 320 nM |
| CN(C)Cc1c(C(=O)NCCOc2ccc(C(=O)NO)cc2)oc2ccccc12 [PCI-24781] | 400 ± 20 nM | 540 ± 30 nM | 460 ± 30 nM | ~8000 nM | 400 ± 20 nM | 350 ± 40 nM | 380 ± 50 nM | 370 ± 40 nM | 310 ± 20 nM | 450 ± 20 nM | 6.5% | – | – | – |
| CCCCCCCCCCCCCC(=O)O[C@@H]1[C@@H](C)[C@@]2(O)[C@@H](C=C(CO)C[C@]3(O)C(=O)C(C)=C[C@@H]23)[C@@H]2C(C)(C)[C@]12OC(C)=O [PMA, phorbol 12-myristate 13-acetate] | – | – | – | – | – | – | – | – | – | – | – | – | – | HIV-1 RNA expression, fold with respect to the untreated control ([9]; cell-associated RNA): about 10 fold; cells expressing gp120 ([10]; 24 h): 50%; cells expressing gp120 ([10]; 48 h): 24%; cells expressing gp120 ([13]; 24 h): 46%; cells expressing gp120 ([13]; 48 h): 43% |
| CC(=O)O[C@@]12C[C@@H](C)[C@@]3(O)[C@@H](C=C(CO)C[C@]4(O)C(=O)C(C)=C[C@@H]34)[C@@H]1C2(C)C [Prostratin] | > 8000 nM | > 8000 nM | 300 ± 30 nM | > 8000 nM | > 8000 nM | 410 ± 30 nM | 870 ± 30 nM | 310 ± 70 nM | > 8000 nM | 680 ± 10 nM | 37% | about 53% | 300 to 870 nM | – |
| CC(C)[C@H]1C(=O)N[C@H](CO)Cc2cc(NC(=O)/C=C/C=C/c3ccc(C(F)(F)F)cc3)ccc2N1C [TPPB] | > 8000 nM | > 8000 nM | 210 ± 10 nM | > 8000 nM | > 8000 nM | 130 ± 10 nM | 490 ± 30 nM | 70 ± 10 nM | > 8000 nM | 510 ± 80 nM | – | 18% | – | – |
| O=C(/C=C/c1cccc(S(=O)(=O)Nc2ccccc2)c1)NO [Belinostat] | 1400 ± 60 nM | 1400 ± 20 nM | 770 ± 10 nM | > 8000 nM | – | 880 ± 400 nM | 940 ± 50 nM | 440 ± 30 nM | 1100 ± 200 nM | 940 ± 30 nM | – | – | 440 to 940 nM | CC50 at 48 h ([5]; OM-10.1 cells): 2700 ± 200 nM |
| CC(C)[C@H](C(=O)Nc1ccc(C(=O)NO)cc1)c1ccccc1 [AR-42] | 450 ± 20 nM | 530 ± 50 nM | 260 ± 100 nM | ~8000 nM | – | 530 ± 80 nM | 440 ± 50 nM | 240 ± 40 nM | 410 ± 10 nM | 550 ± 20 nM | 10.2% | – | 240 to 550 nM | CC50 at 48 h ([5]; OM-10.1 cells): 400 ± 10 nM |
